Assay results taken from article PMC11899342, “Novel Triazeneindole Antibiotics: Synthesis and Hit-to-Lead Optimization” (International Journal of Molecular Sciences, 2025).

System: MRSA clinical isolates
Test: Antibiotic susceptibility profile of MRSA clinical isolates (EUCAST breakpoints)
Type: cell-based, Staphylococcus aureus
Text: Clinical MRSA isolates with multidrug resistance were obtained from the collection of the Research Institute of Antimicrobial Chemotherapy, Smolensk State Medical Academy.

## CN(C)[C@@H]1C(O)=C(C(N)=O)C(=O)[C@@]2(O)C(O)=C3C(=O)c4c(O)cccc4[C@@](C)(O)[C@H]3C[C@@H]12 [TET, tetracycline]
MRSA strain 1
  Drug sensibility profile: R
MRSA strain 2
  Drug sensibility profile: R
MRSA strain 3
  Drug sensibility profile: S
MRSA strain 4
  Drug sensibility profile: S
MRSA strain 5
  Drug sensibility profile: S
MRSA strain 6
  Drug sensibility profile: S
MRSA strain 7
  Drug sensibility profile: R
MRSA strain 8
  Drug sensibility profile: R
MRSA strain 9
  Drug sensibility profile: R
MRSA strain 10
  Drug sensibility profile: S
MRSA strain 12
  Drug sensibility profile: R
MRSA strain 13
  Drug sensibility profile: R
MRSA strain 14
  Drug sensibility profile: S
MRSA strain 15
  Drug sensibility profile: R
MRSA strain 16
  Drug sensibility profile: S
MRSA strain 17
  Drug sensibility profile: S
MRSA strain 18
  Drug sensibility profile: S
MRSA strain 21
  Drug sensibility profile: R
MRSA strain 23
  Drug sensibility profile: S
MRSA strain 24
  Drug sensibility profile: S
MRSA strain 25
  Drug sensibility profile: S
MRSA strain 26
  Drug sensibility profile: S S S S S S S
MRSA strain 27
  Drug sensibility profile: R
MRSA strain 28
  Drug sensibility profile: R
MRSA strain 29
  Drug sensibility profile: S
MRSA strain 30
  Drug sensibility profile: S
MRSA strain 31
  Drug sensibility profile: S
MRSA strain 34
  Drug sensibility profile: S
MRSA strain 35
  Drug sensibility profile: S
MRSA strain 36
  Drug sensibility profile: S S S S S S S
MRSA strain 40
  Drug sensibility profile: R
MRSA strain 41
  Drug sensibility profile: R
MRSA strain 42
  Drug sensibility profile: S
MRSA strain 43
  Drug sensibility profile: S
MRSA strain 44
  Drug sensibility profile: S
MRSA strain 45
  Drug sensibility profile: I
MRSA strain 46
  Drug sensibility profile: S
MRSA strain 48
  Drug sensibility profile: R
MRSA strain 49
  Drug sensibility profile: R
MRSA strain 50
  Drug sensibility profile: R
MRSA strain 51
  Drug sensibility profile: S

## CCCCCCCCCC(=O)N[C@@H](Cc1c[nH]c2ccccc12)C(=O)N[C@H](CC(N)=O)C(=O)N[C@@H](CC(=O)O)C(=O)N[C@@H]1C(=O)NCC(=O)N[C@@H](CCCN)C(=O)N[C@@H](CC(=O)O)C(=O)N[C@H](C)C(=O)N[C@@H](CC(=O)O)C(=O)NCC(=O)N[C@H](CO)C(=O)N[C@@H]([C@H](C)CC(=O)O)C(=O)N[C@@H](CC(=O)c2ccccc2N)C(=O)O[C@@H]1C [Daptomycine]
MRSA strain 1
  Drug sensibility profile: S
MRSA strain 2
  Drug sensibility profile: S
MRSA strain 3
  Drug sensibility profile: S
MRSA strain 4
  Drug sensibility profile: S
MRSA strain 5
  Drug sensibility profile: S
MRSA strain 6
  Drug sensibility profile: S
MRSA strain 7
  Drug sensibility profile: S
MRSA strain 8
  Drug sensibility profile: S
MRSA strain 9
  Drug sensibility profile: S
MRSA strain 10
  Drug sensibility profile: S
MRSA strain 12
  Drug sensibility profile: S
MRSA strain 13
  Drug sensibility profile: S
MRSA strain 14
  Drug sensibility profile: S
MRSA strain 15
  Drug sensibility profile: S
MRSA strain 16
  Drug sensibility profile: S
MRSA strain 17
  Drug sensibility profile: S
MRSA strain 18
  Drug sensibility profile: S
MRSA strain 21
  Drug sensibility profile: S
MRSA strain 23
  Drug sensibility profile: S
MRSA strain 24
  Drug sensibility profile: S
MRSA strain 30
  Drug sensibility profile: S
MRSA strain 31
  Drug sensibility profile: S
MRSA strain 34
  Drug sensibility profile: S
MRSA strain 35
  Drug sensibility profile: S
MRSA strain 40
  Drug sensibility profile: S
MRSA strain 43
  Drug sensibility profile: S
MRSA strain 46
  Drug sensibility profile: S
MRSA strain 48
  Drug sensibility profile: S
MRSA strain 49
  Drug sensibility profile: S
MRSA strain 50
  Drug sensibility profile: S

## CCCCCCCCCCNCCN[C@@]1(C)C[C@H](O[C@H]2[C@H](Oc3c4cc5cc3Oc3ccc(cc3Cl)[C@@H](O)[C@@H](NC(=O)[C@@H](CC(C)C)NC)C(=O)N[C@@H](CC(N)=O)C(=O)N[C@H]5C(=O)N[C@H]3C(=O)N[C@H](C(=O)N[C@H](C(=O)O)c5cc(O)c(CNCP(=O)(O)O)c(O)c5-c5cc3ccc5O)[C@H](O)c3ccc(c(Cl)c3)O4)O[C@H](CO)[C@@H](O)[C@@H]2O)O[C@@H](C)[C@H]1O [Telavancin]
MRSA strain 25
  Drug sensibility profile: S
MRSA strain 26
  Drug sensibility profile: S
MRSA strain 27
  Drug sensibility profile: S
MRSA strain 28
  Drug sensibility profile: S
MRSA strain 29
  Drug sensibility profile: S
MRSA strain 36
  Drug sensibility profile: S
MRSA strain 41
  Drug sensibility profile: S
MRSA strain 42
  Drug sensibility profile: S
MRSA strain 44
  Drug sensibility profile: S
MRSA strain 45
  Drug sensibility profile: S
MRSA strain 51
  Drug sensibility profile: S

## CC[C@H]1OC(=O)[C@H](C)[C@@H](O[C@H]2C[C@@](C)(OC)[C@@H](O)[C@H](C)O2)[C@H](C)[C@@H](O[C@@H]2O[C@H](C)C[C@H](N(C)C)[C@H]2O)[C@](C)(O)C[C@@H](C)C(=O)[C@H](C)[C@@H](O)[C@]1(C)O [ERI, erythromycin]
MRSA strain 1
  Drug sensibility profile: S
MRSA strain 2
  Drug sensibility profile: R
MRSA strain 3
  Drug sensibility profile: S
MRSA strain 4
  Drug sensibility profile: S
MRSA strain 5
  Drug sensibility profile: R
MRSA strain 6
  Drug sensibility profile: R
MRSA strain 7
  Drug sensibility profile: R
MRSA strain 8
  Drug sensibility profile: R
MRSA strain 9
  Drug sensibility profile: R
MRSA strain 10
  Drug sensibility profile: S
MRSA strain 12
  Drug sensibility profile: R
MRSA strain 13
  Drug sensibility profile: S
MRSA strain 14
  Drug sensibility profile: R
MRSA strain 15
  Drug sensibility profile: S
MRSA strain 16
  Drug sensibility profile: R
MRSA strain 17
  Drug sensibility profile: S
MRSA strain 18
  Drug sensibility profile: S
MRSA strain 21
  Drug sensibility profile: R
MRSA strain 23
  Drug sensibility profile: R
MRSA strain 24
  Drug sensibility profile: S
MRSA strain 25
  Drug sensibility profile: S
MRSA strain 26
  Drug sensibility profile: S S S S S S S
MRSA strain 27
  Drug sensibility profile: S
MRSA strain 28
  Drug sensibility profile: R
MRSA strain 29
  Drug sensibility profile: S
MRSA strain 30
  Drug sensibility profile: I
MRSA strain 31
  Drug sensibility profile: R
MRSA strain 34
  Drug sensibility profile: I
MRSA strain 35
  Drug sensibility profile: I
MRSA strain 36
  Drug sensibility profile: S S S S S S S
MRSA strain 40
  Drug sensibility profile: R
MRSA strain 41
  Drug sensibility profile: S
MRSA strain 42
  Drug sensibility profile: S
MRSA strain 43
  Drug sensibility profile: I
MRSA strain 44
  Drug sensibility profile: I
MRSA strain 45
  Drug sensibility profile: R
MRSA strain 46
  Drug sensibility profile: S
MRSA strain 48
  Drug sensibility profile: R
MRSA strain 49
  Drug sensibility profile: I
MRSA strain 50
  Drug sensibility profile: R
MRSA strain 51
  Drug sensibility profile: S

## CNC(C)C1CCC(N)C(OC2C(N)CC(N)C(OC3OCC(C)(O)C(NC)C3O)C2O)O1 (centres unmarked) [GEN, gentamicin]
MRSA strain 1
  Drug sensibility profile: S
MRSA strain 2
  Drug sensibility profile: R
MRSA strain 3
  Drug sensibility profile: R
MRSA strain 4
  Drug sensibility profile: R
MRSA strain 5
  Drug sensibility profile: R
MRSA strain 6
  Drug sensibility profile: S
MRSA strain 7
  Drug sensibility profile: R
MRSA strain 8
  Drug sensibility profile: R
MRSA strain 9
  Drug sensibility profile: R
MRSA strain 10
  Drug sensibility profile: S
MRSA strain 12
  Drug sensibility profile: S
MRSA strain 13
  Drug sensibility profile: R
MRSA strain 14
  Drug sensibility profile: R
MRSA strain 15
  Drug sensibility profile: S
MRSA strain 16
  Drug sensibility profile: R
MRSA strain 17
  Drug sensibility profile: R
MRSA strain 18
  Drug sensibility profile: R
MRSA strain 21
  Drug sensibility profile: S
MRSA strain 23
  Drug sensibility profile: R
MRSA strain 24
  Drug sensibility profile: R
MRSA strain 25
  Drug sensibility profile: R
MRSA strain 26
  Drug sensibility profile: S S S S S S S
MRSA strain 27
  Drug sensibility profile: R
MRSA strain 28
  Drug sensibility profile: R
MRSA strain 29
  Drug sensibility profile: S
MRSA strain 30
  Drug sensibility profile: S
MRSA strain 31
  Drug sensibility profile: R
MRSA strain 34
  Drug sensibility profile: R
MRSA strain 35
  Drug sensibility profile: R
MRSA strain 36
  Drug sensibility profile: S S S S S S S
MRSA strain 40
  Drug sensibility profile: R
MRSA strain 41
  Drug sensibility profile: R
MRSA strain 42
  Drug sensibility profile: R
MRSA strain 43
  Drug sensibility profile: R
MRSA strain 44
  Drug sensibility profile: R
MRSA strain 45
  Drug sensibility profile: R
MRSA strain 46
  Drug sensibility profile: S
MRSA strain 48
  Drug sensibility profile: R
MRSA strain 49
  Drug sensibility profile: S
MRSA strain 50
  Drug sensibility profile: R
MRSA strain 51
  Drug sensibility profile: R
